According to PubChem BioAssay AID602323 (The Scripps Research Institute Molecular Screening Center, 2012):
Activity calls are given as the source filed them. The rule behind the calls is not given here.

Assays:
Experiment in all cases: serine hydrolase inhibition in mouse brain membranes, late-stage follow-up, selectivity assay for DAGLb inhibitor project, biochemical, gel-based competitive ABPP, fluorescence, set 2 (AID 602323)
[1] = target: Platelet-activating factor acetylhydrolase (Mus musculus) (UniProt Q60963); conditions: mouse brain membrane, PLA2G7, at 1 µM, active compounds read high
[2] = target: Diacylglycerol lipase-beta (Mus musculus) (UniProt Q91WC9); conditions: mouse brain membrane, DAGLb, at 1 µM, active compounds read high
[3] = target: Monoacylglycerol lipase ABHD6 (Mus musculus) (UniProt Q8R2Y0); conditions: mouse brain membrane, at 1 µM, active compounds read high
Sequence of Monoacylglycerol lipase ABHD6 (Mus musculus) (Q8R2Y0 whole entry, looked up): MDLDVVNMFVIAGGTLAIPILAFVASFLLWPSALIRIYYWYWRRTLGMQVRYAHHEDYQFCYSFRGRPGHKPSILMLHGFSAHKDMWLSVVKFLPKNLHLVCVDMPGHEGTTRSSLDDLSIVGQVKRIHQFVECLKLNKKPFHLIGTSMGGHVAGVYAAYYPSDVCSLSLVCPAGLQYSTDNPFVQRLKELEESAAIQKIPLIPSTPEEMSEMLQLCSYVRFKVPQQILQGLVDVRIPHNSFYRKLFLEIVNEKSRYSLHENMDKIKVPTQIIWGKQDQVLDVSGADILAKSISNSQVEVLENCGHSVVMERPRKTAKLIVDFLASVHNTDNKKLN

Sequence of Platelet-activating factor acetylhydrolase (Mus musculus) (Q60963 whole entry, looked up): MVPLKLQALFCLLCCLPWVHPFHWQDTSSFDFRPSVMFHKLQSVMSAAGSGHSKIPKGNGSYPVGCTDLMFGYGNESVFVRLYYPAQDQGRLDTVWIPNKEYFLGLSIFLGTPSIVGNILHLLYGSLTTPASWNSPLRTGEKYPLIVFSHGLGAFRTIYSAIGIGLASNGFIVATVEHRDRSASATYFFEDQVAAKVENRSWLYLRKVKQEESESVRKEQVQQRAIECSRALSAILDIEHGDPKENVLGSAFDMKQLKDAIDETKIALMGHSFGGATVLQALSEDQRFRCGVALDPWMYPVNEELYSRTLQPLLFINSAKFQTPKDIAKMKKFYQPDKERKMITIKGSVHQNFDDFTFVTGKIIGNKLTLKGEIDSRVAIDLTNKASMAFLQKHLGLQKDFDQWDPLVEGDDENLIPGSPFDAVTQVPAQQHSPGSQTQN
Sequence of Diacylglycerol lipase-beta (Mus musculus) (Q91WC9 whole entry, looked up): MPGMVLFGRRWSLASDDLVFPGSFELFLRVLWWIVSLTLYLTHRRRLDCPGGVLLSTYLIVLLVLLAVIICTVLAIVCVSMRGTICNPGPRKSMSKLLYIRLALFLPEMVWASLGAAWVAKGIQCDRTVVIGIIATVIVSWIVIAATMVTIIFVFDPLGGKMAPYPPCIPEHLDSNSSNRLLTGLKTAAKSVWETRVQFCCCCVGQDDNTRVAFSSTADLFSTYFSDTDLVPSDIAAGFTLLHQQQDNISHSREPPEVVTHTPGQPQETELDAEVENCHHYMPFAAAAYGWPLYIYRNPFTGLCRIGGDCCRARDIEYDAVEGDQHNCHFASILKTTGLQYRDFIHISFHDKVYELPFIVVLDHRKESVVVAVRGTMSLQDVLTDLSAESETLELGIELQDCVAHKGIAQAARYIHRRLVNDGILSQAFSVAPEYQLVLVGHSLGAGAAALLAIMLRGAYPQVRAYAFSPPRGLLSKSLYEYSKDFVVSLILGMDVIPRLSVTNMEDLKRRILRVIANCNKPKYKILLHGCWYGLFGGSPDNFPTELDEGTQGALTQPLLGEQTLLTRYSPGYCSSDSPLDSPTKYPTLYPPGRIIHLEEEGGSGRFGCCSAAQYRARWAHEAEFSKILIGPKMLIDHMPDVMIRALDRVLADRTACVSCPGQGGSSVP

Row | inhibition [1] | inhibition [2] | inhibition [3] [%] | Compound
1 | 25% (inactive) | 75% | 90 | O=C(N1CCCCC1Cc1ccccc1)n1cc(-c2ccc(-c3ccccc3C(F)(F)F)cc2)nn1 (stereo not given)
2 | 50% | 25% (inactive) | 80 | O=C(N1CCCCC1Cc1ccccc1)n1cc(-c2ccc(-c3ccc(C(F)(F)F)cc3)cc2)nn1 (stereo not given)
3 | 50% | 20% (inactive) | 90 | O=C(N1CCCCC1Cc1ccccc1)n1cc(-c2ccc(-c3ccc(OC(F)(F)F)cc3)cc2)nn1 (stereo not given)
4 | 90% | 90% | 90 | O=C(N1CCCCC1Cc1ccccc1)n1cc(-c2ccc(-c3ccccc3Cl)cc2)nn1 (stereo not given)
5 | 0% (inactive) | 25% (inactive) | 90 | O=C(N1CCCCC1Cc1ccccc1)n1cc(-c2ccc(-c3cccc(CO)c3)cc2)nn1 (stereo not given)
6 | 60% | 80% | 95 | O=C(N1CCCCC1Cc1ccccc1)n1cc(-c2ccc(-c3ccccc3OC(F)(F)F)cc2)nn1 (stereo not given)
7 | 25% (inactive) | 45% (inactive) | 95 | O=C(N1CCCCC1Cc1ccccc1)n1cc(-c2ccc(-c3cccc(C(F)(F)F)c3)cc2)nn1 (stereo not given)
8 | 45% (inactive) | 60% | 90 | O=C(N1CCCCC1Cc1ccccc1)n1cc(-c2ccc(-c3ccoc3)cc2)nn1 (stereo not given)

More lines, now with the values behind:

Row | Compound | inhibition [1] | inhibition [2] | inhibition [3] [%]
9 | O=C(c1ccc(-c2cn(C(=O)N3CCCCC3Cc3ccccc3)nn2)cc1)N1CCCCC1 (stereo not given) | 30% (inactive) | 95% | 95
10 | CC(C)CN(CCc1ccccc1)C(=O)n1cc(-c2ccc(OC(F)(F)F)cc2)nn1 | 95% | 90% | 95
11 | O=C(N1CCCCC1Cc1ccccc1)n1cc(-c2cccc(-c3ccccc3)c2)nn1 (stereo not given) | 30% (inactive) | 75% | 95
12 | O=C(N1CCCCC1Cc1ccccc1)n1cc(-c2ccc(OC(F)(F)F)cc2)nn1 (stereo not given) | 90% | 90% | 90
13 | O=C(N1CCCCC1Cc1ccccc1)n1ncc(C(O)(c2ccccc2)c2ccccc2)n1 (stereo not given) | 0% (inactive) | 80% | 90
14 | O=C(N1CCCCC1Cc1ccccc1)n1cc(-c2ccc(-c3ccccc3)cc2)nn1 (stereo not given) | 40% (inactive) | 80% | 95
15 | Cc1ccccc1-c1ccc(-c2cn(C(=O)N3CCCCC3Cc3ccccc3)nn2)cc1 (stereo not given) | 80% | 80% | 90
16 | O=C(N1CCCCC1Cc1ccccc1)n1cc(-c2cc(F)cc(F)c2)nn1 (stereo not given) | 95% | 85% | 98
17 | O=C(N1CCCCC1Cc1ccccc1)n1cc(-c2ccc(-c3ccc4c(c3)OCO4)cc2)nn1 (stereo not given) | 20% (inactive) | 25% (inactive) | 90
18 | O=C(N1CCCCC1Cc1ccccc1)n1cc(-c2ccccc2-c2ccccc2)nn1 (stereo not given) | 40% (inactive) | 75% | 95
19 | CC(C)(C)OC(=O)NCCCCCN(CCc1ccccc1)C(=O)n1cc(-c2ccc(OC(F)(F)F)cc2)nn1 | 95% | 95% | 90
20 | O=C(c1ccc(-c2ccc(-c3cn(C(=O)N4CCCCC4Cc4ccccc4)nn3)cc2)cc1)N1CCCCC1 (stereo not given) | 0% (inactive) | 20% (inactive) | 90
21 | O=C(N1CCCCC1Cc1ccccc1)n1ncc(-c2ccc(OC(F)(F)F)cc2)n1 (stereo not given) | 90% | 50% | 70
22 | O=C(N1CCCCC1Cc1ccccc1)n1cc(-c2ccc(Br)cc2)nn1 (stereo not given) | 95% | 85% | 98
23 | O=C(N(CCc1ccccc1)Cc1ccco1)n1cc(-c2ccc(OC(F)(F)F)cc2)nn1 | 95% | 95% | 95
24 | COc1ccccc1-c1ccc(-c2cn(C(=O)N3CCCCC3Cc3ccccc3)nn2)cc1 (stereo not given) | 25% (inactive) | 85% | 95
25 | O=C(N1CCCCC1Cc1ccccc1)n1cc(-c2ccc(-c3ccccc3CO)cc2)nn1 (stereo not given) | 20% (inactive) | 90% | 95
